In US20140235533A1, “DIHYDROFURAN DERIVATIVES AS INSECTICIDAL COMPOUNDS” (SYNGENTA PARTICIPATIONS AG, priority 2011, published 2014):

What was measured:
Type in all cases: in vivo
[1] = system: Spodoptera littoralis; experiment: Spodoptera littoralis (Egyptian cotton leafworm) cotton leaf disc spray test; settings: foliar, 72 h, 200 ppm spray on cotton leaf discs, 5 L1 larvae, mortality, feeding behavior, growth regulation 3 days after treatment
Description: Spodoptera littoralis (Egyptian Cotton Leafworm) Cotton leaf discs were placed on agar in a 24-well microtiter plate and sprayed with test solutions at an application rate of 200 ppm. After drying, the leaf discs were infested with 5 L1 larvae. The samples were checked for mortality, feeding behavior, and growth regulation 3 days after treatment (DAT).

[2] = system: Heliothis virescens; experiment: Heliothis virescens (tobacco budworm) egg test on artificial diet; settings: 96 h, 200 ppm (concentration in well 18 ppm), eggs 0-24 h old on artificial diet, egg mortality, larval mortality, growth regulation after 4 days
Protocol: Heliothis virescens (Tobacco Budworm):
Eggs (0-24 h old) were placed in 24-well microtiter plate on artificial diet and treated with test solutions at an application rate of 200 ppm (concentration in well 18 ppm) by pipetting. After an incubation period of 4 days, samples were checked for egg mortality, larval mortality, and growth regulation. The following compound gave at least 80% control of Heliothis virescens: A1, A2, A03, A05, A06, A07, A08, A09, A10, A11, A12, A13, A14, A15, A16, A17, A18, A19, A20, A21, A22, A25, A26, A27, A31, A32, A34, A37, A39, A40, A42, A44, A45, A46, A47, A48, A49, A50, A51, A52, A53, B1**.

[3] = system: Plutella xylostella; experiment: Plutella xylostella (diamond back moth) artificial diet MTP test; settings: 144 h, 200 ppm (concentration in well 18 ppm), L2 larvae, larval mortality and growth regulation after 6 days
Protocol: (§1) Plutella xylostella (Diamond Back Moth): 24-well microtiter plate (MTP) with artificial diet was treated with test solutions at an application rate of 200 ppm (concentration in well 18 ppm) by pipetting. After drying, the MTPs were infested with L2 larvae (7-12 per well). After an incubation period of 6 days, samples were checked for larval mortality and growth regulation.

[4] = system: Diabrotica balteata; experiment: Diabrotica balteata (corn root worm) artificial diet MTP test; settings: 120 h, 200 ppm (concentration in well 18 ppm), L2 larvae, larval mortality and growth regulation after 5 days
Protocol: as §1, with “Diabrotica balteata (Corn Root Worm): A” for “Plutella xylostella (Diamond Back Moth):”, “(6-10” for “(7-12”, “5” for “6”

[5] = system: Tetranychus urticae; experiment: Tetranychus urticae (two-spotted spider mite) bean leaf disc spray test; settings: foliar, 192 h, 200 ppm spray on bean leaf discs, mite populations of mixed ages, egg, larval and adult mortality 8 days later
Description: Tetranychus urticae (Two-Spotted Spider Mite): Bean leaf discs on agar in 24-well microtiter plates were sprayed with test solutions at an application rate of 200 ppm. After drying, the leaf discs are infested with mite populations of mixed ages. 8 days later, discs are checked for egg mortality, larval mortality, and adult mortality.

Measured: pest or weed control at 200 ppm

C/N=C1/SC(CC(=O)NCc2ccc(C3=COC(c4cc(Cl)cc(Cl)c4)(C(F)(F)F)C3)cc2Cl)C(=O)N1C (stereo not drawn) [Compound A15, N-[[2-chloro-4-[2-(3,5-dichlorophenyl)-2-(trifluoromethyl)-3H-furan-4-yl]phenyl]methyl]-2-[(2E)-3-methyl-2-methylimino-4-oxo-thiazolidin-5-yl]acetamide]
≥ 80%: all assays above

CCC(CC)C(=O)NCc1ccc(C2=COC(c3cc(Cl)cc(Cl)c3)(C(F)(F)F)C2)cc1Cl (stereo not drawn) [Compound A03, N-[[2-chloro-4-[2-(3,5-dichlorophenyl)-2-(trifluoromethyl)-3H-furan-4-yl]phenyl]methyl]-2-ethyl-butanamide]
≥ 80%: all assays above

CS(=O)(=O)CC(=O)NCc1ccc(C2=COC(c3cc(Cl)cc(Cl)c3)(C(F)(F)F)C2)cc1Cl (stereo not drawn) [Compound A51, N-[[2-chloro-4-[2-(3,5-dichlorophenyl)-2-(trifluoromethyl)-3H-furan-4-yl]phenyl]methyl]-2-methylsulfonyl-acetamide]
≥ 80%: all assays above
